The test system of one assay is P. aeruginosa IMI-2016. As to the kind of experiment: MIC of antibiotics by serial dilution with or without FCCD. It is filed as cell-based. On the procedure: The study is carried out on P. aeruginosa strains given in the previous examples by in vitro serial dilution method using FCCD. Evaluate the decrease in resistance of Pseudomonas aeruginosa strains to amikacin and polymyxin. Prepare two rows of plates with Müller-Hinton nutrient medium: the first row contains various concentrations of the studied antibiotic (amikacin and polymyxin)—31, 62, 125, 250, 500 μg/ml of medium (double dilution). At the same time, prepare the same row of plates, but add FCCD additionally into the medium at a concentration of (0.0001-0.001) %. Inoculate 0.05 ml (drop) of each test strain on the plates from a bacterial suspension containing 10^8 […] according to the optic turbidity standard of 10 units. Müller-Hinton medium without antibiotic and Müller-Hinton medium containing 0.0001% of FCCD without antibiotic are used as controls. Inoculations are incubated at 37° C. for 48 hours. The results are considered by the value of MIC (minimum inhibitory concentration) with the obligatory growth of bacteria on control plates (see table 12).

A further assay has as its system P. Aeruginosa strains. As to the kind of experiment: Antibiotic disc diffusion on Müller-Hinton agar with or without FCCD. Format: cell-based, Pseudomonas aeruginosa. As to conditions: for sensitivity of bacteria to antibiotic disc (in words): discs added with additional passages, FCCD medium. On the procedure:
The studies are carried out in vitro by diffusion method on P. Aeruginosa strains indicated in previous experiments. Two rows of plates containing Müller-Hinton agar were prepared in parallel, with a 0.01-0.005% FCCD solution added to the second-row plates. After that, bacteria of the studied strains from a suspension containing 10^8 […] are inoculated on the surface of the agar. To do this, prepare a bacterial suspension corresponding to a concentration of 10^9 […] according to the optic turbidity standard of 10 units diluted with physiological salt solution 10 times (up to 10^8 μl/m1). […] Inoculations on plates with FCCD-free medium are used as controls, as well as media on which discs are not applied. Inoculations are incubated for 48 hours at 37° C. in one passage, then re-inoculation is carried out under similar conditions for the following passages. A total of 4 passages were carried out with controls. The results are taken into account by the diameter of the bacteria inhibition zones. On FCCD-free medium, there are no inhibition zones (an indicator of antibiotic resistance of bacteria), whereas on a medium containing 0.005-0.01% FCCD, a zone of bacterial growth inhibition from 25 to 40 mm in diameter forms around discs (appearance of sensitivity to antibiotic).
Growth inhibition zones were not observed for antibiotics Pseudomonas aeruginosa has genetically determined (initial) antibiotic resistance.
(In general: In agar diffusion tests the substance spreads into inoculated agar from a disc or well.)

In the next assay the test system is A. baumannii IMI-2016. Put plainly: MIC of antibiotics by serial dilution with or without FCCD. It is filed as cell-based.
A further assay concerns K. pneumoniae IMI-2016. The description is as above. Format: cell-based.
The mark [1] stands for this setting: Pseudomonas aeruginosa, IMI2016, Control (without FCCD), read-out: MIC.
[2] abbreviates: Pseudomonas aeruginosa, IMI2016, with FCCD 0.001 % (first FCCD line), read-out: MIC.
Setting [3] is: Pseudomonas aeruginosa, IMI2016, with FCCD 0.001 % (second FCCD line), read-out: MIC.
Setting [4] is: Acinetobacter baumannii, IMI2016, Control (without FCCD), read-out: MIC.
The mark [5] stands for this setting: Acinetobacter baumannii, IMI2016, with FCCD 0.001 % (first FCCD line), read-out: MIC.
Where [6] appears, read: Acinetobacter baumannii, IMI2016, with FCCD 0.001 % (second FCCD line), read-out: MIC.
Where [7] appears, read: Klebsiella pneumoniae, IMI2016, Control (without FCCD), read-out: MIC.
[8] abbreviates: Klebsiella pneumoniae, IMI2016, with FCCD 0,001 % (first FCCD line), read-out: MIC.
Setting [9] is: Klebsiella pneumoniae, IMI2016, with FCCD 0,001 % (second FCCD line), read-out: MIC.
Setting [10] is: with FCCD 0.001 % (first FCCD line).
Where [11] appears, read: with FCCD 0.001 % (second FCCD line).
Setting [12] is: with FCCD 0,001 % (first FCCD line).
Setting [13] is: with FCCD 0,001 % (second FCCD line).

Like-named read-outs stand apart in the source and are kept apart here.

For `NCC[C@H](O)C(=O)N[C@@H]1C[C@H](N)[C@@H](O[C@H]2O[C@H](CN)[C@@H](O)[C@H](O)[C@H]2O)[C@H](O)[C@H]1O[C@H]1O[C@H](CO)[C@@H](O)[C@H](N)[C@H]1O` [Amikacin], in the assay on P. aeruginosa IMI-2016 (Pseudomonas aeruginosa), the “increase of sensitivity to antibiotic under FCCD” value is reported as 33 times. The MIC (usually the smallest concentration in the dilution series that meets the test's criterion for growth inhibition) in the assay with P. aeruginosa IMI-2016 (setting [1]) was above 500 µg/mL; in the assay with P. aeruginosa IMI-2016 (setting [2]) it was 15 µg/mL; with P. aeruginosa IMI-2016 (setting [3]), 125 µg/mL; in the assay with A. baumannii IMI-2016 (setting [4]), above 500 µg/mL; with A. baumannii IMI-2016 (setting [5]), 15 µg/mL; in the assay with A. baumannii IMI-2016 (setting [6]), 125 µg/mL. The MIC was above 500 µg/mL in the assay with K. pneumoniae IMI-2016 (setting [7]), 31 µg/mL in the assay with K. pneumoniae IMI-2016 (setting [8]) and 62 µg/mL in the assay on K. pneumoniae IMI-2016 (setting [9]). Further, the “zone of bacterial growth inhibition around disc (in words)” value in the assay on P. Aeruginosa strains (FCCD-free medium) was “no zone of bacterial growth inhibition”; with P. Aeruginosa strains (medium with (0.005-0.01)% FCCD) it was “zone of bacterial growth inhibition appears”.
As for `CO/N=C(\C(=O)N[C@@H]1C(=O)N2C(C(=O)O)=C(CSc3nc(=O)c(=O)[nH]n3C)CS[C@H]12)c1csc(N)n1` [Ceftriaxone], the MIC with P. aeruginosa IMI-2016 (setting [1]) was above 500 µg/mL; in the assay with P. aeruginosa IMI-2016 (setting [2]), 250 µg/mL; with P. aeruginosa IMI-2016 (setting [3]), 500 µg/mL; with A. baumannii IMI-2016 (setting [4]), above 500 µg/mL; in the assay with A. baumannii IMI-2016 (setting [5]), 250 µg/mL; with A. baumannii IMI-2016 (setting [6]) it was 125 µg/mL. The MIC in the assay on K. pneumoniae IMI-2016 (setting [7]) is above 500 µg/mL; in the assay with K. pneumoniae IMI-2016 (setting [8]), 125 µg/mL; in the assay on K. pneumoniae IMI-2016 (setting [9]) it was 250 µg/mL.
On to `C[C@@H](O)[C@H]1C(=O)N2C(C(=O)O)=C(SCCN=CN)C[C@H]12` [Imipinem], for which the MIC was above 500 µg/mL with P. aeruginosa IMI-2016 (Control (without FCCD)); 250 µg/mL with P. aeruginosa IMI-2016 (setting [10]); 125 µg/mL in the assay with P. aeruginosa IMI-2016 (setting [11]); above 500 µg/mL with A. baumannii IMI-2016 (Control (without FCCD)); 250 µg/mL with A. baumannii IMI-2016 (setting [10]); 31 µg/mL in the assay with A. baumannii IMI-2016 (setting [11]). Also, the MIC in the assay with K. pneumoniae IMI-2016 (Control (without FCCD)) is above 500 µg/mL; in the assay with K. pneumoniae IMI-2016 (setting [12]), 250 µg/mL; in the assay on K. pneumoniae IMI-2016 (setting [13]), 125 µg/mL.
Consider `C[C@H]1COc2c(N3CCN(C)CC3)c(F)cc3c(=O)c(C(=O)O)cn1c23` [Levofloxacin], for which the MIC with P. aeruginosa IMI-2016 (setting [1]) was above 500 µg/mL; with P. aeruginosa IMI-2016 (setting [2]) it was 125 µg/mL; in the assay on P. aeruginosa IMI-2016 (setting [3]), 250 µg/mL; with A. baumannii IMI-2016 (setting [4]) it was above 500 µg/mL; in the assay on A. baumannii IMI-2016 (setting [5]), 125 µg/mL; in the assay on A. baumannii IMI-2016 (setting [6]), 62 µg/mL. Moreover, the values for the MIC in the assay on K. pneumoniae IMI-2016 (setting [7]), with K. pneumoniae IMI-2016 (setting [8]) and in the assay on K. pneumoniae IMI-2016 (setting [9]) were above 500 µg/mL, 125 µg/mL and 250 µg/mL, respectively.
On to `CC1(C)S[C@@H]2[C@H](NC(=O)[C@H](N)c3ccc(O)cc3)C(=O)N2[C@H]1C(=O)O` [amoxicillin], for which, in the assay on P. Aeruginosa strains, the “sensitivity of bacteria to antibiotic disc (in words)” value is reported as “did not appear sensitive”.
`Cc1nnc(SCC2=C(C(=O)O)N3C(=O)[C@@H](NC(=O)Cn4cnnn4)[C@H]3SC2)s1` [cefazolin]: the “sensitivity of bacteria to antibiotic disc (in words)” value with P. Aeruginosa strains is “did not appear sensitive”.
In the case of Polymyxin, the MIC in the assay on P. aeruginosa IMI-2016 (Control (without FCCD)) was 250 µg/mL; in the assay on P. aeruginosa IMI-2016 (setting [10]) it was 31 µg/mL; with P. aeruginosa IMI-2016 (setting [11]), 125 µg/mL; in the assay with A. baumannii IMI-2016 (Control (without FCCD)) it was above 500 µg/mL; with A. baumannii IMI-2016 (setting [10]), 31 µg/mL; with A. baumannii IMI-2016 (setting [11]) it was 62 µg/mL. Also, the MIC was above 500 µg/mL in the assay with K. pneumoniae IMI-2016 (Control (without FCCD)), 62 µg/mL in the assay with K. pneumoniae IMI-2016 (setting [12]) and 125 µg/mL with K. pneumoniae IMI-2016 (setting [13]). The “increase of sensitivity to antibiotic under FCCD” value with P. aeruginosa IMI-2016 (Pseudomonas aeruginosa) is on record as 16 times. The “zone of bacterial growth inhibition around disc (in words)” value is recorded as “no zone of bacterial growth inhibition” with P. Aeruginosa strains (FCCD-free medium) and “zone of bacterial growth inhibition appears” with P. Aeruginosa strains (medium with (0.005-0.01)% FCCD).

(Values after US11191767B2, “Pharmaceutical composition for stimulating stem cell division and suppressing bacterial virulence” (priority 2017, dated 2021).)
